Where “and” joins values, the source holds several entries; their conditions need not be identical. Equal values may be shown once.
Assays:
[1] = Spectrofluorimetry studies: calcium binding constant (Kd) of ion indicators; settings: 30 mM MOPS, 100 mM KCl buffers; calculated from 8-10 data points; read-out: Kd(Ca^2+)
Procedure: (§1) The excitation and emission spectra of solutions of various ion indicators (concentration 1-2 μM) were recorded in 30 mM MOPS and 100 mM KCl buffers containing 0 to 200 nM free calcium ion. The binding constant values were calculated based on 8-10 data points taken in buffers covering the concentration range appropriate for the Kd value. Spectral curves for derivatives of Compound 7 (with different R substitutents) were recorded using a standard spectrofluorimeter.

[2] = Spectrofluorimetry studies: excitation and emission spectra and ratiometric response to metal ion binding; type: physicochemical; settings: for λabs (UV), (nm): indicator 1-2 μM in 30 mM MOPS, 100 mM KCl buffer; for λemiss (nm) / λexcit (nm): position of maxima for two ratiometric peaks, 30 mM MOPS, 100 mM KCl, 0 to 200 nM free calcium ion
Procedure: as §1
FIGS. 1-3 show excitation and emission spectra for several of the tested compounds. […]

[3] = test system: Jurkat T-cell leukemia cultured cells; experiment: Flow cytometry studies: intracellular calcium response of dye-loaded cells after stimulant; type: cell-based; settings: Jurkat cells loaded with 4 μM cell-permeant compound, 355 nm excitation
Procedure: Jurkat T-cell leukemia cultured cells were washed once with Hanks Buffered Salt Solution (HBSS) containing calcium and resuspended in HBSS at a concentration of 2×10^6/ml. A one (1) mL cell suspension was added to a 12×75 mm test tube. A cell-permeant compound (7e or 7f) was added to the cell suspension at a final concentration of 4 μM. The cell/dye mixture was mixed and placed at 37° C. protected from light for 30 minutes. The sample then was washed once with HBSS pre-warmed to 37° C. and the cell pellet was resuspended in one mL warmed HBSS. The sample rested for 15 minutes at 37° C. protected from light. […] Analysis of the data was performed using a dual parameter plot of time versus fluorescence ratio of the emissions as measured by 495/20:424/44 ratio. […] A plot of time versus fluorescence ratio for cells that have been loaded with the tested compound was collected upon addition of ionomycin or CD3 stimulant after baseline measurement. […] For Compound 7e, the ratio of the mean fluorescence as measured yielded an increase of 3.4× with ionomycin stimulation (A), an expected response which was maintained over time. The ratio of the mean fluorescence as measured gave an increase of 2.8× with CD3 stimulation (B), an expected response which decreased slightly over time. […]

| Structure (SMILES) | Kd [1] | λabs (UV), (nm) [2] | λemiss (nm) [2] | λexcit (nm) [2] | increase of ratio of mean fluorescence (495/20:424/44 emission ratio) after stimulant vs baseline ([3]; 1 μM ionomycin stimulation) | increase of ratio of mean fluorescence (495/20:424/44 emission ratio) after stimulant vs baseline ([3]; CD3 stimulation) |
| --- | --- | --- | --- | --- | --- | --- |
| COc1cc(N(C)C)ccc1-c1nc2cc(OCCOc3cc(C)ccc3N(CC(=O)O)CC(=O)O)c(N(CC(=O)O)CC(=O)O)cc2o1 [Compound 7f] | 0.103 µM | 363 nm | 417-475 nm | 363 nm | 3.2 × | 2.8 × |
| Cc1ccc(N(CC(=O)O)CC(=O)O)c(OCCOc2cc3nc(-c4nc5ccccc5s4)oc3cc2N(CC(=O)O)CC(=O)O)c1 [Compound 7i] | 0.309 µM | 364 nm | 569 nm | 361-422 nm | – | – |
| Cc1ccc(N(CC(=O)O)CC(=O)O)c(OCCOc2cc3nc(-c4cc[n+]([O-])cc4)oc3cc2N(CC(=O)O)CC(=O)O)c1 [Compound 7k] | 0.304 µM | 357 nm | 612 nm | 356-425 nm | – | – |
| Cc1ccc(N(CC(=O)O)CC(=O)O)c(OCCOc2cc3nc(-c4ccc5nonc5c4)oc3cc2N(CC(=O)O)CC(=O)O)c1 [Compound 7l] | 0.157 µM | 330 nm and 440 (non- nm | 490 nm | 324-364 nm | – | – |
| Cc1ccc(N(CC(=O)O)CC(=O)O)c(OCCOc2cc3nc(/C=C/c4ccc(N(C)C)c5ccccc45)oc3cc2N(CC(=O)O)CC(=O)O)c1 [Compound 7p] | 0.29 µM | 392 nm | 586 nm | 392 nm | – | – |
| Cc1ccc(N(CC(=O)O)CC(=O)O)c(OCCOc2cc3nc(-c4ccc5cc(N(C)C)ccc5c4)oc3cc2N(CC(=O)O)CC(=O)O)c1 [Compound 7r] | 0.129 µM | 373 nm | 496 nm | 373 nm | – | – |

The next lines start with results.

| Kd [1] | λabs (UV), (nm) [2] | λemiss (nm) [2] | λexcit (nm) [2] | Structure (SMILES) | increase of ratio of mean fluorescence (495/20:424/44 emission ratio) after stimulant vs baseline ([3]; 1 μM ionomycin stimulation) | increase of ratio of mean fluorescence (495/20:424/44 emission ratio) after stimulant vs baseline ([3]; CD3 stimulation) |
| --- | --- | --- | --- | --- | --- | --- |
| 0.085 µM | 363 nm | 417-496 nm | 363 nm | Cc1ccc(N(CC(=O)O)CC(=O)O)c(OCCOc2cc3nc(-c4ccc(N(C)C)cc4O)oc3cc2N(CC(=O)O)CC(=O)O)c1 [Compound 7g] | – | – |
| 0.145 µM | 375 nm | 435-510 nm | 375 nm | Cc1ccc(N(CC(=O)O)CC(=O)O)c(OCCOc2cc3nc(-c4cc5c6c(c4)CCCN6CCC5)oc3cc2N(CC(=O)O)CC(=O)O)c1 [Compound 7h] | – | – |
| 0.146 µM | 366 nm | 567 nm | 349-392 nm | Cc1ccc(N(CC(=O)O)CC(=O)O)c(OCCOc2cc3nc(-c4cccc(=O)[nH]4)oc3cc2N(CC(=O)O)CC(=O)O)c1 [Compound 7j] | – | – |
| 0.08 µM | 413 nm | 548 nm | 413 nm | Cc1ccc(N(CC(=O)O)CC(=O)O)c(OCCOc2cc3nc(/C=C/c4cc5c6c(c4)CCCN6CCC5)oc3cc2N(CC(=O)O)CC(=O)O)c1 [Compound 7q] | – | – |
| 0.156 µM | 472 nm | 520 nm | 472 nm | Cc1ccc(N(CC(=O)O)CC(=O)O)c(OCCOc2cc3nc(-c4cc5cc6c7c(c5oc4=O)CCCN7CCC6)oc3cc2N(CC(=O)O)CC(=O)O)c1 [Compound 7t] | – | – |

Reference: patent US8968997B2, “Benzoxazole-based fluorescent metal ion indicators” (Life Technologies Corporation, priority 2008, dated 2015)
